± gives the expanded uncertainty stated by the source.
Experiment: xn = mol fraction of the nth substance listed
Conditions: 101 kPa, Liquid, Vibrating tube method

## C=C[Si](C)(C)O[Si](C)(C)C=C [1,3-diethenyl-1,1,3,3-tetramethyldisiloxane] + O=[N+]([O-])c1ccccc1
283.15 K, x1 = 0.05
  mass density: 1176.35 ± 1 kg/m3
283.15 K, x1 = 0.1
  mass density: 1142.71 ± 1 kg/m3
283.15 K, x1 = 0.15
  mass density: 1111.83 ± 1 kg/m3
283.15 K, x1 = 0.2
  mass density: 1083.35 ± 1 kg/m3
283.15 K, x1 = 0.25
  mass density: 1057.23 ± 1 kg/m3
283.15 K, x1 = 0.3
  mass density: 1033.06 ± 1 kg/m3
283.15 K, x1 = 0.3508
  mass density: 1010.38 ± 1 kg/m3
283.15 K, x1 = 0.4001
  mass density: 989.98 ± 1 kg/m3
283.15 K, x1 = 0.4501
  mass density: 970.75 ± 1 kg/m3
283.15 K, x1 = 0.4999
  mass density: 952.93 ± 1 kg/m3
283.15 K, x1 = 0.55
  mass density: 936.17 ± 1 kg/m3
283.15 K, x1 = 0.6001
  mass density: 920.46 ± 1 kg/m3
283.15 K, x1 = 0.6487
  mass density: 906.15 ± 1 kg/m3
283.15 K, x1 = 0.6999
  mass density: 891.87 ± 1 kg/m3
283.15 K, x1 = 0.7499
  mass density: 878.8 ± 1 kg/m3
283.15 K, x1 = 0.7999
  mass density: 866.41 ± 1 kg/m3
283.15 K, x1 = 0.8497
  mass density: 854.66 ± 1 kg/m3
283.15 K, x1 = 0.9
  mass density: 843.43 ± 1 kg/m3
283.15 K, x1 = 0.9499
  mass density: 832.79 ± 1 kg/m3
283.15 K, x1 = 1
  mass density: 822.64 ± 1 kg/m3
288.15 K, x1 = 0.05
  mass density: 1171.43 ± 1 kg/m3
288.15 K, x1 = 0.1
  mass density: 1137.83 ± 1 kg/m3
288.15 K, x1 = 0.15
  mass density: 1106.98 ± 1 kg/m3
288.15 K, x1 = 0.2
  mass density: 1078.52 ± 1 kg/m3
288.15 K, x1 = 0.25
  mass density: 1052.41 ± 1 kg/m3
288.15 K, x1 = 0.3
  mass density: 1028.23 ± 1 kg/m3
288.15 K, x1 = 0.3508
  mass density: 1005.54 ± 1 kg/m3
288.15 K, x1 = 0.4001
  mass density: 985.14 ± 1 kg/m3
288.15 K, x1 = 0.4501
  mass density: 965.91 ± 1 kg/m3
288.15 K, x1 = 0.4999
  mass density: 948.07 ± 1 kg/m3
288.15 K, x1 = 0.55
  mass density: 931.3 ± 1 kg/m3
288.15 K, x1 = 0.6001
  mass density: 915.57 ± 1 kg/m3
288.15 K, x1 = 0.6487
  mass density: 901.26 ± 1 kg/m3
288.15 K, x1 = 0.6999
  mass density: 887 ± 1 kg/m3
288.15 K, x1 = 0.7499
  mass density: 873.92 ± 1 kg/m3
288.15 K, x1 = 0.7999
  mass density: 861.51 ± 1 kg/m3
288.15 K, x1 = 0.8497
  mass density: 849.77 ± 1 kg/m3
288.15 K, x1 = 0.9
  mass density: 838.53 ± 1 kg/m3
288.15 K, x1 = 0.9499
  mass density: 827.88 ± 1 kg/m3
288.15 K, x1 = 1
  mass density: 817.73 ± 1 kg/m3
293.15 K, x1 = 0.05
  mass density: 1166.52 ± 1 kg/m3
293.15 K, x1 = 0.1
  mass density: 1132.97 ± 1 kg/m3
293.15 K, x1 = 0.15
  mass density: 1102.13 ± 1 kg/m3
293.15 K, x1 = 0.2
  mass density: 1073.67 ± 1 kg/m3
293.15 K, x1 = 0.25
  mass density: 1047.57 ± 1 kg/m3
293.15 K, x1 = 0.3
  mass density: 1023.4 ± 1 kg/m3
293.15 K, x1 = 0.3508
  mass density: 1000.74 ± 1 kg/m3
293.15 K, x1 = 0.4001
  mass density: 980.32 ± 1 kg/m3
293.15 K, x1 = 0.4501
  mass density: 961.08 ± 1 kg/m3
293.15 K, x1 = 0.4999
  mass density: 943.22 ± 1 kg/m3
293.15 K, x1 = 0.55
  mass density: 926.44 ± 1 kg/m3
293.15 K, x1 = 0.6001
  mass density: 910.7 ± 1 kg/m3
293.15 K, x1 = 0.6487
  mass density: 896.39 ± 1 kg/m3
293.15 K, x1 = 0.6999
  mass density: 882.12 ± 1 kg/m3
293.15 K, x1 = 0.7499
  mass density: 869.03 ± 1 kg/m3
293.15 K, x1 = 0.7999
  mass density: 856.6 ± 1 kg/m3
293.15 K, x1 = 0.8497
  mass density: 844.87 ± 1 kg/m3
293.15 K, x1 = 0.9
  mass density: 833.62 ± 1 kg/m3
293.15 K, x1 = 0.9499
  mass density: 822.98 ± 1 kg/m3
293.15 K, x1 = 1
  mass density: 812.82 ± 1 kg/m3
298.15 K, x1 = 0.05
  mass density: 1161.69 ± 1 kg/m3
298.15 K, x1 = 0.1
  mass density: 1128.22 ± 1 kg/m3
298.15 K, x1 = 0.15
  mass density: 1097.43 ± 1 kg/m3
298.15 K, x1 = 0.2
  mass density: 1068.96 ± 1 kg/m3
298.15 K, x1 = 0.25
  mass density: 1042.87 ± 1 kg/m3
298.15 K, x1 = 0.3
  mass density: 1018.69 ± 1 kg/m3
298.15 K, x1 = 0.3508
  mass density: 996.01 ± 1 kg/m3
298.15 K, x1 = 0.4001
  mass density: 975.57 ± 1 kg/m3
298.15 K, x1 = 0.4501
  mass density: 956.32 ± 1 kg/m3
298.15 K, x1 = 0.4999
  mass density: 938.45 ± 1 kg/m3
298.15 K, x1 = 0.55
  mass density: 921.66 ± 1 kg/m3
298.15 K, x1 = 0.6001
  mass density: 905.91 ± 1 kg/m3
298.15 K, x1 = 0.6487
  mass density: 891.58 ± 1 kg/m3
298.15 K, x1 = 0.6999
  mass density: 877.3 ± 1 kg/m3
298.15 K, x1 = 0.7499
  mass density: 864.21 ± 1 kg/m3
298.15 K, x1 = 0.7999
  mass density: 851.77 ± 1 kg/m3
298.15 K, x1 = 0.8497
  mass density: 840.06 ± 1 kg/m3
298.15 K, x1 = 0.9
  mass density: 828.8 ± 1 kg/m3
298.15 K, x1 = 0.9499
  mass density: 818.14 ± 1 kg/m3
298.15 K, x1 = 1
  mass density: 807.98 ± 1 kg/m3
303.15 K, x1 = 0.05
  mass density: 1156.82 ± 1 kg/m3
303.15 K, x1 = 0.1
  mass density: 1123.45 ± 1 kg/m3
303.15 K, x1 = 0.15
  mass density: 1092.67 ± 1 kg/m3
303.15 K, x1 = 0.2
  mass density: 1064.2 ± 1 kg/m3
303.15 K, x1 = 0.25
  mass density: 1038.12 ± 1 kg/m3
303.15 K, x1 = 0.3
  mass density: 1013.92 ± 1 kg/m3
303.15 K, x1 = 0.3508
  mass density: 991.23 ± 1 kg/m3
303.15 K, x1 = 0.4001
  mass density: 970.77 ± 1 kg/m3
303.15 K, x1 = 0.4501
  mass density: 951.52 ± 1 kg/m3
303.15 K, x1 = 0.4999
  mass density: 933.61 ± 1 kg/m3
303.15 K, x1 = 0.55
  mass density: 916.81 ± 1 kg/m3
303.15 K, x1 = 0.6001
  mass density: 901.03 ± 1 kg/m3
303.15 K, x1 = 0.6487
  mass density: 886.71 ± 1 kg/m3
303.15 K, x1 = 0.6999
  mass density: 872.42 ± 1 kg/m3
303.15 K, x1 = 0.7499
  mass density: 859.31 ± 1 kg/m3
303.15 K, x1 = 0.7999
  mass density: 846.84 ± 1 kg/m3
303.15 K, x1 = 0.8497
  mass density: 835.12 ± 1 kg/m3
303.15 K, x1 = 0.9
  mass density: 823.86 ± 1 kg/m3
303.15 K, x1 = 0.9499
  mass density: 813.2 ± 1 kg/m3
303.15 K, x1 = 1
  mass density: 803.03 ± 1 kg/m3
